Drawing on patent EP0387762A2, “Medicament with positive inotropic activity, containing a synergistically active mixture consisting of a benzimidazole and a beta-blocker, its preparation and use” (Dr. Karl Thomae GmbH, priority 1989, dated 1990), this text covers LD50 for two compounds.

Data set [1] can be described thus: Acute toxicity, i.v., rat. The settings on record: in vivo, iv, Ratte, read-out: LD₅₀ i.v. An excerpt: (§1) Die erfindungsgemäß einsetzten Verbindungen sind gut verträglich. So weist beispielsweise die Verbindung A folgende akute Toxizitäten auf: […]
Data set [2] can be described thus: Acute toxicity, p.o., mouse. The note with it: in vivo, po, Maus, read-out: LD₅₀ p.o.
From the text: as §1

Bounds are passed on as bounds.

In the case of `CC1CC(=O)NN=C1c1ccc2nc(-c3ccc(O)cc3)[nH]c2c1` (stereo not drawn) [Verbindung B, 2-(4-Hydroxyphenyl)-5-(5-methyl-3-oxo-4,5-dihydro-2H-6-pyridazinyl)-benzimidazol], the LD50 in data set [1] is greater than 100 mg/kg.
Take `COc1ccc(-c2nc3ccc(C4=NNC(=O)CC4C)cc3[nH]2)cc1` (stereo not drawn) [Verbindung A, 2-(4-Methoxyphenyl)-5-(5-methyl-3-oxo-4,5-dihydro-2H-6-pyridazinyl)-benzimidazol]: the LD50 in data set [1] was determined as 72 mg/kg; in data set [2], 600 mg/kg.
